Measurements as given in US6875743B1, “Cell adhesion inhibitors” (Biogen, Inc., priority 1996, dated 2005).
Numbered stars: 1 amine (or outer) side, 2 acyl side, 3 side chain; on linkers, the order of the positions; unused ones are H or OH. Square brackets hold non-standard residues; d marks the D form. Peptide text beside a SMILES is read from it. * marks the point of attachment. X2 = Cc1ccccc1NC(=O)Nc1ccc(CN*)cc1; X4 = COc1nc(CC(=O)[*:2])ccc1N[*:1]; Hydrocinnamoyl = O=C(CCc1ccccc1)*; Quinaldoyl = O=C(c1ccc2ccccc2n1)*; X1 = O=C(Cc1ccc(N[*:1])cc1)[*:2]; NH(2-Me-phenyl) = Cc1ccccc1N*; Tic = O=C(O)[CH]1Cc2ccccc2CN1; NMeL = CN[CH](CC(C)C)C(=O)O; Nle = CCCC[CH](N)C(=O)O; Boc = CC(C)(C)OC(=O)*; CO = O=C([*:1])[*:2]; NHPh = c1ccc(N*)cc1

B1: Compound 2 (peptide)
peptide: {3‑methoxy‑4‑(N'-phenylurea)phenylacetyl}-MDVP-OH
B2: Compound 168 (peptide)
peptide: Quinaldoyl-LDVM-OMe
SMILES: COC(=O)[C@H](CCSC)NC(=O)[C@@H](NC(=O)[C@H](CC(=O)O)NC(=O)[C@H](CC(C)C)NC(=O)c1ccc2ccccc2n1)C(C)C
B3: Compound 146 (peptide)
peptide: {4‑(N'-2-hydroxyphenylurea)phenylacetyl}-MDVP-OH
B4: Compound 167 (peptide)
peptide: Boc-LDVM-OMe
SMILES: COC(=O)[C@H](CCSC)NC(=O)[C@@H](NC(=O)[C@H](CC(=O)O)NC(=O)[C@H](CC(C)C)NC(=O)OC(C)(C)C)C(C)C

Assays:
[1] = biological target: T1, VLA4 (Homo sapiens, UniProt P05556+P13612); assay: Inhibition of VLA4-dependent adhesion to BSA-CS1; format: cell-based; conditions: binding of BCECF-labelled Ramos cells to BSA-CS1 coated wells, 2 mM MnCl2; read-out: IC50
T1 construct: endogenous in cells; host or cells: Ramos cells

[2] = biological target: T2, α4β1 integrin, very late antigen-4 (VLA-4) (UniProt P13612 34-1032; P05556 21-798, limits assumed); assay: inhibition of Ramos cell adhesion to BSA-CS1
T2 construct: whole, on cells; also called CD49d/CD29
Protocol: Following labelling, the cells were washed twice in assay buffer (24 mM TRIS, 137 mM NaCl, 2.7 mM KCl, pH 7.4, containing 0.1% BSA and 2 mM glucose) to remove any cations originating from the culture medium. The cells were then resuspended in assay buffer to 4×10⁶ cells/mL and 2 mM MnCl_2 was added to upregulate VLA4 on the surface of the cells.
Immediately prior to running the assay, we removed the BSA blocking solution from the 96-well plates and washed the wells with 100 μL of assay buffer. We then added to each well 25 μL of test cell adhesion inhibitory compound at 2× the final concentration and 25 μL of the labelled Ramos cells. […] Each concentration of compound was tested in triplicate. The compound and cells are allowed to incubate for 30 minutes at room temperature.
Percent binding is calculated by the formula: […]

T1 sequence (P13612 34-1032): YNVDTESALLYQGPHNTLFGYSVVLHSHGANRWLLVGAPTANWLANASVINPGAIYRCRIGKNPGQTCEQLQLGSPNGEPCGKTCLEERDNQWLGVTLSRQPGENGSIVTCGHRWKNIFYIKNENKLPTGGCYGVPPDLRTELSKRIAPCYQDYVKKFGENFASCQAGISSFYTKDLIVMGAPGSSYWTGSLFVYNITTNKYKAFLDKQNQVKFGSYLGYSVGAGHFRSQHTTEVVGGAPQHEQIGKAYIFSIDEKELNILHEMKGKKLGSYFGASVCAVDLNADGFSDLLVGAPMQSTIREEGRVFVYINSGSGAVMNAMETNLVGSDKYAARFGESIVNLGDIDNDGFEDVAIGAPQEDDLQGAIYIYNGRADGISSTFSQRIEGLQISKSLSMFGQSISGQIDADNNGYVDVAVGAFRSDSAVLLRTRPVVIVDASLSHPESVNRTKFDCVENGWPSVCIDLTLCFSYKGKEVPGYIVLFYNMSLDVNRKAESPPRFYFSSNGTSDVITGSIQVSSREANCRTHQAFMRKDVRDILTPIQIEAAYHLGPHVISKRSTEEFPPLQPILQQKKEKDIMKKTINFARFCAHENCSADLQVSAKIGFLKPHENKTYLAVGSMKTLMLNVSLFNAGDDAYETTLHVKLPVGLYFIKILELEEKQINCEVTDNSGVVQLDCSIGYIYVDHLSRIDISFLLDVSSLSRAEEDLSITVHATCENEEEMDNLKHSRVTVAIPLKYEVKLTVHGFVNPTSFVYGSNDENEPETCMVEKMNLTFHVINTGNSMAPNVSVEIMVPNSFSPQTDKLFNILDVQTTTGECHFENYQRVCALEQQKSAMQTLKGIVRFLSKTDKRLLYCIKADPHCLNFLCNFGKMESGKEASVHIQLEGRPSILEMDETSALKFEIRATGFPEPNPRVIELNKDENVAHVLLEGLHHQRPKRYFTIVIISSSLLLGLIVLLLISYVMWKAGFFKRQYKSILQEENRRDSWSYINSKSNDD
T1 sequence (P05556 21-798): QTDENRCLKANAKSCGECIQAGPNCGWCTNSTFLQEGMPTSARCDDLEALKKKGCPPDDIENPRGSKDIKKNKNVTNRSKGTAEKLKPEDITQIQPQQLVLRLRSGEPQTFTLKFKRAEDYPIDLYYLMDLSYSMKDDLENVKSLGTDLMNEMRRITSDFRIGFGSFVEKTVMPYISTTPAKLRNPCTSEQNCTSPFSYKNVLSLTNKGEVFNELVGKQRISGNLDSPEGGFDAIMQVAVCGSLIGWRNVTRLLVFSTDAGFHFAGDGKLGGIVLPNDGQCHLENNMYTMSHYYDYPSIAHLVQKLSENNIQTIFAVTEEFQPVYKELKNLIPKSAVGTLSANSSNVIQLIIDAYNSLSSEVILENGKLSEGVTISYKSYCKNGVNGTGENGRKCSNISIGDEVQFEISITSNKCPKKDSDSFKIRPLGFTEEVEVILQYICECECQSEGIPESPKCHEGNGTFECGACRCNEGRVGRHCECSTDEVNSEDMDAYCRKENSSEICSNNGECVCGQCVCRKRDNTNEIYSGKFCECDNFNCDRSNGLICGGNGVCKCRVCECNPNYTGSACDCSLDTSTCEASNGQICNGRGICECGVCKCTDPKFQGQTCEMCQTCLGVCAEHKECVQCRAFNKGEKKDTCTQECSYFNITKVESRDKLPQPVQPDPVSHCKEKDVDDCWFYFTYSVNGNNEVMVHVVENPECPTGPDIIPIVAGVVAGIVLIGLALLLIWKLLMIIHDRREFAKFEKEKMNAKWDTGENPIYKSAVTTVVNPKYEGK
T2 sequence (P13612 34-1032 limits assumed, chain 1 of 2): as the sequence (P13612 34-1032) above
T2 sequence (P05556 21-798 limits assumed, chain 2 of 2): as the sequence (P05556 21-798) above

IC50 [1] | IC50 [2] | Molecule
< 50 nM | – | CC(C)C[C@H](NC(=O)Cc1ccc(NC(=O)Nc2ccccc2)cc1)C(=O)N[C@@H](CC(=O)O)C(=O)N[C@H](C(=O)O)C(C)C [Compound 203]
50 to 10000 nM | – | CCCCC(NC(=O)C(NC(=O)C(CC(=O)O)NC(=O)C(CC(C)C)NC(=O)c1ccc2ccccc2n1)C(C)C)C(=O)O (stereo not shown) [Compound 44] (Quinaldoyl-LDV[Nle]-OH; configuration not given here)
> 10000 nM | – | CC(C)CC(NC(=O)CCc1ccc(O)cc1)C(=O)NC(CC(=O)O)C(=O)NCC1CCCCC1 (stereo not shown) [Compound 14]
< 50 nM | – | Cc1ccccc1NC(=O)Nc1ccc(CC(=O)N[C@@H](CO)C(=O)N[C@@H](CC(=O)O)C(=O)N[C@@H](Cc2c[nH]c3ccccc23)C(N)=O)cc1 [Compound 284]
< 50 nM | – | Cc1ccccc1NC(=O)Nc1ccc(CC(=O)N[C@H](CC(C)C)C(=O)N[C@@H](CC(=O)O)C(=O)N[C@H](CC(C)C)C(N)=O)cc1 [Compound 289]
< 50 nM | – | Cc1ccccc1NC(=O)Nc1ccc(CC(=O)N2CCC[C@H]2C(=O)N[C@@H](CC(=O)O)C(=O)N[C@H](CC(N)=O)C(N)=O)cc1 [Compound 248]
> 10000 nM | – | CC(C)C[C@H](NC(=O)C1C2CC3CC(C2)CC1C3)C(=O)N[C@@H](CC(=O)O)C(=O)N[C@H](C(=O)O)C(C)C (stereo partly shown) [Compound 398]
> 10000 nM | – | CC(C)C[C@H](NC(=O)Cc1cccs1)C(=O)N[C@@H](CC(=O)O)C(=O)N[C@H](C(=O)O)C(C)C [Compound 404]
> 10000 nM | – | CC(C)CC(NC(=O)C1Cc2ccccc2CN1)C(=O)NC(CC(=O)O)C(=O)O (stereo not drawn) [Compound 23] (H-[Tic]-Leu-Asp-OH; configuration not given here)
< 50 nM | – | Cc1ccccc1NC(=O)Nc1ccc(CC(=O)N[C@H](C(=O)N[C@@H](CC(=O)O)C(=O)N[C@H](CCC(=O)O)C(N)=O)[C@@H](C)O)cc1 [Compound 260]
< 50 nM | – | Cc1ccccc1NC(=O)Nc1ccc(CC(=O)N[C@@H](CO)C(=O)N[C@@H](CC(=O)O)C(=O)N[C@H](C(N)=O)C(C)C)cc1 [Compound 277]
> 10000 nM | – | CC(C)CC(NC(=O)C(Cc1ccc(O)cc1)NC(=O)OC(C)(C)C)C(=O)NC(CC(=O)O)C(=O)NC(C(=O)O)C(C)C (stereo not shown) [Compound 66] (Boc-YLDV-OH; configuration not given here)
< 50 nM | – | CSCC[C@H](NC(=O)[C@H](CC(=O)O)NC(=O)[C@H](CCC(=O)O)NC(=O)Cc1ccc(NC(=O)Nc2ccccc2C)cc1)C(N)=O [Compound 269]
> 10000 nM | – | CCC(C)C(NC(=O)C(CC(=O)O)NC(=O)C(NC(=O)C1CCCN1)C(C)C)C(=O)NCc1ccc(NC(=O)Nc2ccccc2C)cc1 (stereo not shown) [Compound 343] (H-PVDI-X2; configuration not given here)
< 50 nM | – | Cc1ccccc1NC(=O)Nc1ccc(CC(=O)N2CCC[C@H]2C(=O)N[C@@H](CC(=O)O)C(=O)N[C@H](C(N)=O)[C@@H](C)O)cc1 [Compound 246]
< 50 nM | – | Cc1ccccc1NC(=O)Nc1ccc(CC(=O)N[C@@H](CO)C(=O)N[C@@H](CC(=O)O)C(=O)N[C@@H](CCC(=O)O)C(N)=O)cc1 [Compound 279]
50 to 10000 nM | – | CCC(C)C(NC(=O)C(CC(=O)O)NC(=O)C(CC(C)C)NC(=O)C1CCc2ccccc2N1)C(=O)NC (stereo not shown) [Compound 58]
> 10000 nM | – | CCC(C)C(NC(=O)CCc1ccc(O)cc1)C(=O)NC(CC(=O)O)C(=O)NCC(C)C (stereo not shown) [Compound 17]
< 50 nM | – | Cc1ccccc1NC(=O)Nc1ccc(CC(=O)NC(CC(C)C)C(=O)NC(CC(=O)O)C(=O)NC(CO)C(N)=O)cc1 (stereo not shown) [Compound 296]
> 10000 nM | – | CC(C)C[C@H](NC(=O)c1cc2ccccc2cn1)C(=O)NC(Cc1nnn[nH]1)C(=O)N[C@H](C(=O)O)C(C)C (stereo partly shown) [Compound 10]
50 to 10000 nM | – | CC(C)CNC(=O)[C@@H](NC(=O)[C@H](CC(=O)O)NC(=O)[C@H](CC(C)C)NC(=O)Cc1ccc(NC(=O)Nc2ccccc2)cc1)C(C)C [Compound 205]
< 50 nM | – | CSCC[C@H](NC(=O)[C@H](CC(=O)O)NC(=O)[C@@H](NC(=O)Cc1ccc(NC(=O)Nc2ccccc2C)cc1)[C@@H](C)O)C(N)=O [Compound 258]
< 50 nM | – | CSCC[C@H](NC(=O)Cc1ccc(NC(=O)Nc2ccccc2C)cc1)C(=O)N[C@@H](CCC(=O)O)C(=O)N[C@H](C(N)=O)C(C)C [Compound 309]
< 50 nM | – | COc1nc(CC(=O)N[C@@H](CC(C)C)C(=O)N[C@@H](CC(=O)O)C(=O)N[C@H](C(=O)N2CCC[C@H]2C(=O)O)C(C)C)ccc1NC(=O)Nc1ccccc1C [Compound 4] ({NH(2-Me-phenyl)-CO}-[X4]LDVP-OH)
> 10000 nM | – | CC(C)C[C@H](NC(=O)c1cccnc1Sc1ccccc1)C(=O)N[C@@H](CC(=O)O)C(=O)N[C@H](C(=O)O)C(C)C [Compound 373]

IC50 [1] | IC50 [2] | Molecule
> 10000 nM | – | CC(C)C[C@H](NC(=O)Nc1cnc2ccccc2n1)C(=O)N[C@@H](CC(=O)O)C(=O)N[C@H](C(=O)O)C(C)C [Compound 380]
< 50 nM | – | Cc1ccccc1NC(=O)Nc1ccc(CC(=O)N2CCC[C@H]2C(=O)N[C@@H](CC(=O)O)C(=O)N[C@@H](CC(C)C)C(N)=O)cc1 [Compound 242]
< 50 nM | – | Cc1ccccc1NC(=O)Nc1ccc(CC(=O)N[C@@H](CC(C)C)C(=O)N[C@@H](CCC(=O)O)C(=O)N[C@H](C(N)=O)C(C)C)cc1 [Compound 311]
< 50 nM | – | CSCC[C@H](NC(=O)[C@H](CC(=O)O)NC(=O)[C@H](CO)NC(=O)Cc1ccc(NC(=O)Nc2ccccc2C)cc1)C(N)=O [Compound 281]
> 10000 nM | – | CNC(=O)C(NC(=O)C(CC(=O)O)NC(=O)C(CC(C)C)N(C)C(=O)CCc1ccccc1)C(C)C (stereo not drawn) [Compound 184] (Hydrocinnamoyl-[NMeL]-Asp-Val-NHMe; configuration not given here)
< 50 nM | – | Cc1ccccc1NC(=O)Nc1ccc(CC(=O)N[C@@H](CCC(=O)O)C(=O)N[C@@H](CC(=O)O)C(=O)N[C@H](C(N)=O)C(C)C)cc1 [Compound 265]
< 50 nM | – | Cc1ccccc1NC(=O)Nc1ccc(CC(=O)N2CCC[C@H]2C(=O)N[C@@H](CCC(=O)O)C(=O)N[C@H](C(N)=O)C(C)C)cc1 [Compound 313]
< 50 nM | – | Cc1ccccc1NC(=O)Nc1ccc(CC(=O)N[C@@H](CCC(N)=O)C(=O)N[C@@H](CC(=O)O)C(=O)N[C@@H](Cc2c[nH]c3ccccc23)C(N)=O)cc1 [Compound 306]
< 50 nM | – | Cc1ccccc1NC(=O)Nc1ccc(CC(=O)N[C@H](C(=O)N[C@@H](CCC(=O)O)C(=O)N[C@@H](CC(=O)O)C(N)=O)[C@@H](C)O)cc1 [Compound 314]
< 50 nM | – | Cc1ccccc1NC(=O)Nc1ccc(CC(=O)N[C@@H](CC(C)C)C(=O)N[C@@H](CC(=O)O)C(=O)N[C@H](CC(C)C)C(N)=O)cc1 [Compound 233]
< 50 nM | – | Cc1ccccc1NC(=O)Nc1ccc(CC(=O)N[C@@H](CCC(N)=O)C(=O)N[C@@H](CC(=O)O)C(=O)N[C@@H](CC(C)C)C(N)=O)cc1 [Compound 298]
50 to 10000 nM | – | CC(C)CC(NC(=O)Cc1ccc(NC(=O)Nc2ccccc2)cc1)C(=O)NC(CC(=O)O)C(=O)NC(C(=O)N1CCCC1C(N)=O)C(C)C (stereo not shown) [Compound 201] ({NHPh-CO}-[X1]LDVP-NH2; configuration not given here)
< 50 nM | – | Cc1ccccc1NC(=O)Nc1ccc(CC(=O)N[C@@H](CCC(N)=O)C(=O)N[C@@H](CC(=O)O)C(=O)N[C@H](C(N)=O)[C@@H](C)O)cc1 [Compound 302]
< 50 nM | – | Cc1ccccc1NC(=O)Nc1ccc(CC(=O)N[C@@H](CCC(=O)O)C(=O)N[C@@H](CC(=O)O)C(=O)N[C@H](CCC(=O)O)C(N)=O)cc1 [Compound 271]
50 to 10000 nM | – | CNC(=O)[C@@H](CC(C)C)NC(=O)[C@H](CC(=O)O)NC(=O)[C@@H]1CCCN1C(=O)Cc1ccc(NC(=O)Nc2ccccc2C)cc1 [Compound 409]
< 50 nM | – | Cc1ccccc1NC(=O)Nc1ccc(CC(=O)N2CCC[C@H]2C(=O)N[C@@H](CC(=O)O)C(=O)N[C@H](C(N)=O)C(C)C)cc1 [Compound 243]
< 50 nM | – | Cc1ccccc1NC(=O)Nc1ccc(CC(=O)N[C@@H](CO)C(=O)N[C@@H](CC(=O)O)C(=O)N[C@H](C(N)=O)[C@@H](C)O)cc1 [Compound 280]
> 10000 nM | – | CCCCCCNC(=O)C(NC(=O)C(CC(=O)O)NC(=O)C(CC(C)C)NC(=O)C1CCc2ccccc2N1)C(C)C (stereo not shown) [Compound 114]
< 50 nM | – | Cc1ccccc1NC(=O)Nc1ccc(CC(=O)N[C@@H](CCC(N)=O)C(=O)N[C@@H](CC(=O)O)C(=O)N[C@@H](CCC(=O)O)C(N)=O)cc1 [Compound 301]
< 50 nM | – | Cc1ccccc1NC(=O)Nc1ccc(CC(=O)N[C@@H](CCC(N)=O)C(=O)N[C@@H](CC(=O)O)C(=O)N[C@@H](CC(=O)O)C(N)=O)cc1 [Compound 297]
– | < 50 nM | B1
– | 50 to 10000 nM | B2
– | < 50 nM | B3
– | > 10000 nM | B4
